The AUC(0-inf) is total exposure, with the tail of the curve extrapolated. As a reminder, the IC50 is the point on the concentration scale where inhibition reaches its midpoint. As a reminder, the Cmax is the peak of the concentration-time curve. One may read the half-life as how long it takes for the measured level to halve. As usually defined, the clearance is the rate of elimination divided by the concentration. Usually Tmax stands for the time from dosing to the highest level.

Data set [1] is described as follows: AUC (0 to infinity) in rat at 0.3 mg/kg, iv. It counts as ADME, organism-based. Details: dose 0.3 mg/kg, route intravenous, time infinity. The following applies: in vivo.
The next data set addresses CYP3A4/5 (Homo sapiens, UniProt P08684+P20815). As to the kind of experiment: Inhibition of CYP3A4/5 (unknown origin). In kind it is ADME, protein assay.
A short description of data set [2]: Cmax in monkey at 1 mg/kg, po. Details: dose 1 mg/kg, route oral. The note with it: rhesus monkey, in vivo. It counts as ADME, organism-based, Macaca mulatta.
A further data set deals with CYP2D6 (Homo sapiens, UniProt P10635). As to the kind of experiment: Inhibition of CYP2D6 (unknown origin). In kind it is ADME.
Chain of CYP2D6 (P10635 whole entry): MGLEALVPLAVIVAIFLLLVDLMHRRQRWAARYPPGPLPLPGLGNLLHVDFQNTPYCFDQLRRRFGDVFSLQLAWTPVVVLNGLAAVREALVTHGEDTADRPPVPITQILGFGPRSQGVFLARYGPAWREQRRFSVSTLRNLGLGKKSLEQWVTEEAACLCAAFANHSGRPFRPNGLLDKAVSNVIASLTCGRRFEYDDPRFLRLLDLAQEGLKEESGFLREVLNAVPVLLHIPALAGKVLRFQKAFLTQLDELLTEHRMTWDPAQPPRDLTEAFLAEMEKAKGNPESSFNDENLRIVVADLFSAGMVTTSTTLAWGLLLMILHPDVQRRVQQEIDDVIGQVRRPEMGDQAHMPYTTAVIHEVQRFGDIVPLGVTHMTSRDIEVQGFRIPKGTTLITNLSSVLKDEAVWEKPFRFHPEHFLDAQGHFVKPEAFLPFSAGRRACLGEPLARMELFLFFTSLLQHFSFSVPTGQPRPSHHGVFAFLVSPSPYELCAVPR
Data set [3] in a line: Initial plasma concentration in monkey at 0.3 mg/kg, iv. In kind it is ADME, organism-based, Macaca mulatta. The following applies: rhesus monkey.
For another data set, the target named is T1, CYP2A6 (Homo sapiens, UniProt P11509).
T1 sequence (P11509 whole entry): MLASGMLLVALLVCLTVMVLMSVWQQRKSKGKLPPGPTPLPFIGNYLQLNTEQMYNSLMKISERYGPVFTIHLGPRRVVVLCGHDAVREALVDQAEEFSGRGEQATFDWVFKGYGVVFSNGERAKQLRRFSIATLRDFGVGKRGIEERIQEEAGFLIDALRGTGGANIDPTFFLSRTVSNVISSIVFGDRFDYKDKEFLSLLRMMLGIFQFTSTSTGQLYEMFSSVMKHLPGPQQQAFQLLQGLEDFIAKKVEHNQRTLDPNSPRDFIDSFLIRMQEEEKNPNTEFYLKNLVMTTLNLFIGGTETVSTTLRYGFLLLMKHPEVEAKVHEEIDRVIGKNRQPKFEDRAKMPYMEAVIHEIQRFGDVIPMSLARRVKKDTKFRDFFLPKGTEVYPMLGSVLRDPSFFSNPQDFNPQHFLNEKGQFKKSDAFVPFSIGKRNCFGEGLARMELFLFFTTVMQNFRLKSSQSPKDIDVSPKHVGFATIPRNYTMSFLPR
As to the kind of experiment: Inhibition of CYP2A6 (unknown origin). In kind it is ADME.

Data set [4] concerns the target T2, Extracellular calcium-sensing receptor (Rattus norvegicus, UniProt P48442).
T2 sequence (P48442 whole entry): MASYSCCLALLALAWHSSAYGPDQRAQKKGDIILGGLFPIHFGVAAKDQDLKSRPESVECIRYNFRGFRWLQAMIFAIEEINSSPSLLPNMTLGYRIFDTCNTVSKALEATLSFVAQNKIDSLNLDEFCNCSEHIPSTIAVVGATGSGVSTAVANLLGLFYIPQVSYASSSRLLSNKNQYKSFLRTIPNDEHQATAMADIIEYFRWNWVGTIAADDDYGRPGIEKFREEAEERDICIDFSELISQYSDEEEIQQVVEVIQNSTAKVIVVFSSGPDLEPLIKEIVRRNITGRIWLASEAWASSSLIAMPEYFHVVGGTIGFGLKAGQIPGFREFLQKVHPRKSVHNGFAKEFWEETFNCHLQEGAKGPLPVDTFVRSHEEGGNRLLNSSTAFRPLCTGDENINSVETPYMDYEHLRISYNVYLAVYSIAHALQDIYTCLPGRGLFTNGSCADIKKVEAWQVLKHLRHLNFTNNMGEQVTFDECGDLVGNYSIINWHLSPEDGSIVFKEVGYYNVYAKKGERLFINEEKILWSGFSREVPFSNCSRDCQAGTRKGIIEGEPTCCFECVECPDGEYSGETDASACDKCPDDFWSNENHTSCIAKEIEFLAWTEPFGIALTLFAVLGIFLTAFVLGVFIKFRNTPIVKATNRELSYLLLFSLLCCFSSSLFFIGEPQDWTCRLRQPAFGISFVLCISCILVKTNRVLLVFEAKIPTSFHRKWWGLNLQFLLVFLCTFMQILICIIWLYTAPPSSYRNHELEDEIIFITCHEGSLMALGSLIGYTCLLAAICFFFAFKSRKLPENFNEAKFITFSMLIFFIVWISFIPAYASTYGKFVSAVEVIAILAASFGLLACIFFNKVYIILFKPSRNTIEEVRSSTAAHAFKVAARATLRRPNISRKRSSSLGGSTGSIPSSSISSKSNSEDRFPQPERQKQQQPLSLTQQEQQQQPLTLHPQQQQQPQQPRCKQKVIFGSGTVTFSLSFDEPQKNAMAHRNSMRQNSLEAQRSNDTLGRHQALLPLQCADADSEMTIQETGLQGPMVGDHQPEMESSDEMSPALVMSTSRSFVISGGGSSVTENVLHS
Nature of the data set: Agonist activity at CaSR in rat parathyroid cells assessed as inhibition of PTH (1 to 84 residues) production in presence of Cacl2 by ELISA. It counts as functional, cell-based. In general terms: In an ELISA, binding on a coated surface is turned into a signal by an enzyme label.

The nature of data set [5]: Half life in monkey at 0.3 mg/kg, iv. In kind it is ADME, organism-based, Macaca mulatta. The note with it: rhesus monkey, in vivo.
The nature of data set [6]: Half life in monkey at 1 mg/kg, po. In kind it is ADME, organism-based, Macaca mulatta. The note with it: rhesus monkey, in vivo.
For the next data set, the target named is CYP2C9 (Homo sapiens, UniProt P11712). As to the kind of experiment: Inhibition of CYP2C9 (unknown origin). It counts as ADME.
Chain of CYP2C9 (P11712 whole entry): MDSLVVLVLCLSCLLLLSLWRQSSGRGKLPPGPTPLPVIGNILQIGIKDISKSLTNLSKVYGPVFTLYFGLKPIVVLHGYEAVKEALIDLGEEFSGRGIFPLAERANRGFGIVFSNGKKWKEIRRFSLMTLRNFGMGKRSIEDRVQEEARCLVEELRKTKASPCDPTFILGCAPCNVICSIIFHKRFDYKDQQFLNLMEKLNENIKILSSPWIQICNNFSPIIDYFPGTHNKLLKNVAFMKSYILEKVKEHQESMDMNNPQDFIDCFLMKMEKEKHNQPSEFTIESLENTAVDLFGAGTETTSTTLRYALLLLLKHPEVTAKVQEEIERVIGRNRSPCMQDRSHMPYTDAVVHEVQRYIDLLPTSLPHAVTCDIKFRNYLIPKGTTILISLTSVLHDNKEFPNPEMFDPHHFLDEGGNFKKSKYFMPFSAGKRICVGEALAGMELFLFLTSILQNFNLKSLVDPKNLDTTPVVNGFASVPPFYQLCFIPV
Data set [7] in a line: Cmax in rat at 1 mg/kg, po. In kind it is ADME, organism-based. Details: dose 1 mg/kg, route oral. The note with it: in vivo.
Data set [8] is described as follows: Total clearance in rat at 0.3 mg/kg, iv. In kind it is ADME, organism-based. The note with it: in vivo.
Data set [9] is described as follows: Initial plasma concentration in rat at 0.3 mg/kg, iv. It counts as ADME, organism-based.
Data set [10] can be described thus: Tmax in monkey at 1 mg/kg, po. In kind it is ADME, organism-based, Macaca mulatta. The following applies: rhesus monkey, in vivo.
Data set [11] is described as follows: Volume of distribution at steady state in monkey at 0.3 mg/kg, iv. The note with it: rhesus monkey, in vivo, read-out: Vdss. In kind it is ADME, organism-based, Macaca mulatta.

`C[C@@H](N[C@H]1CCN(c2ccc(CC(=O)O)cc2)C1)c1cccc2ccccc12.Cl.Cl` displayed an AUC(0-inf) in data set [1] of 3010 ng·h/mL. Further, the IC50 against CYP3A4/5 was more than 50 µM; against CYP2D6 it was more than 50 µM; at CYP2A6 it was more than 50 µM; in data set [4], 0.0308 µM; against CYP2C9, more than 50 µM. The Cmax in data set [2] is 746 ng/mL; in [7], 2190 ng/mL. Also, the values for the C0 in [3] and in data set [9] were 1630 ng/mL and 1080 ng/mL, respectively. Further, the half-life in [5] is 10.2 h; in [6], 8.94 h. The molecule further had a clearance in [8] of 1.67 mL/min/kg. Also, the Tmax in data set [10] was 1.38 h. In addition, the Vd in [11] is 0.716 L/kg.
